Data reported in PubChem BioAssay (NCI).
Several values for one entry are separate records, joined by “and”; a condition that tells them apart may be missing. Equal entries are not always repeated.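 All cell lines were grown in 96-well plates and treated with compound for 48 hours. GI50: concentration for 50% inhibition of growth. TGI: concentration producing complete growth inhibition.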

Columns and labels:
Assay in all cases: growth of human tumour cells (NCI), 48 h
[1] = tested on: A549 NSCLC
[2] = tested on: CAKI-1 renal
[3] = tested on: HL-60(TB) leukemia
[4] = tested on: HS 578T breast
[5] = tested on: M14 melanoma
[6] = tested on: OVCAR-8 ovarian
[7] = tested on: RPMI-8226 leukemia
[8] = tested on: RXF 393 renal
[9] = tested on: SNB-19 CNS
[10] = tested on: SR leukemia

Row | SMILES | TGI [1] | TGI [2] | TGI [3] | TGI [4] | TGI [5] | TGI [6] | TGI [7] | TGI [8] | TGI [9] | TGI [10] | GI50 [1] | GI50 [3] | GI50 [4] | GI50 [5] | GI50 [6] | GI50 [7] | GI50 [8] | GI50 [9] | GI50 [10] | GI50 [2] [µM]
1 | COc1ccc(C(C#N)NC23CC4CC(CC(C4)C2)C3)cc1 (stereo not drawn) | > 100 µM | > 100 µM | > 100 µM | > 100 µM | > 100 µM | > 100 µM | > 100 µM | > 100 µM | > 100 µM | > 100 µM | – | – | – | – | – | – | – | – | – | –
2 | C=CC(=O)N1CCC(Oc2cc3c(Nc4ccc(Cl)c(Cl)c4F)ncnc3cc2OC)CC1 | 19.9 µM and > 10 µM | 12.6 µM and 2.36 µM | 48.5 µM and > 10 µM | 44.1 µM and 8.16 µM | 20.2 µM and > 10 µM | 28.6 µM and > 10 µM | 42.6 µM and > 10 µM | 2.76 µM and 3.87 µM | 23.9 µM and > 10 µM | 10.9 µM and > 10 µM | 3.12 µM and 1.6 µM | 8.97 µM and 3.77 µM | 3.61 µM and 1.74 µM | 4 µM and 3.1 µM | 4.52 µM and 1.91 µM | 6.49 µM and 3.93 µM | 0.596 µM and 0.81 µM | 8.97 µM and 6.52 µM | 2.27 µM and 2.8 µM | –
3 | O=C(O)CSCCc1ccccc1 | > 100 µM | > 100 µM | 1.98 µM | > 100 µM | > 100 µM | > 100 µM | > 100 µM | > 100 µM | > 100 µM | > 100 µM | – | – | – | – | – | – | – | – | – | –
4 | CCN(CC)CCNC(Cc1ccccc1)c1ccc(OCc2ccccc2)cc1 (stereo not drawn) | 22 µM | 16.7 µM | 7.79 µM | 23.8 µM | 5.09 µM | 24.4 µM | 6.84 µM | 18.1 µM | 22.8 µM | 6.74 µM | 7.74 µM | 2.77 µM | 4.32 µM | 2.07 µM | 10.7 µM | 2.4 µM | 3.83 µM | 9.65 µM | 2.35 µM | 4.52
5 | CC(C)(C)c1cc([N+](=O)[O-])cc([N+](=O)[O-])c1O | > 10 µM | > 10 µM | > 10 µM | > 10 µM | > 10 µM | > 10 µM | > 10 µM | > 10 µM | > 10 µM | > 10 µM | – | – | – | – | – | – | – | – | – | –
6 | C[C@]12CCc3sc(Nc4ccc(OC(F)(F)F)cc4)nc3C1=CC[C@@H]1[C@@H]2CC[C@]2(C)C(=O)CC[C@@H]12 | 16.1 µM | 13.2 µM | 4.44 µM | 5.22 µM | 8.72 µM | 25 µM | 3.77 µM | 2.21 µM | 9.93 µM | > 100 µM | 3.35 µM | 1.93 µM | 1.48 µM | 3.29 µM | 3.49 µM | 1.02 µM | 0.5 µM | 2.12 µM | 2.74 µM | 3.21
7 | COc1cccc2c1C(=N)c1c(O)c3c(c(O)c1C2=O)C[C@@](O)(C(C)=O)C[C@@H]3O[C@H]1C[C@H](N)[C@H](O)[C@H](C)O1 | 1.58 µM | 4.07 µM | 2.36 µM | 8.31 µM | 4.78 µM | 1.95 µM | 4.03 µM | 3.58 µM | 2.92 µM | 6.08 µM | 0.155 µM | 0.112 µM | 1.66 µM | 0.496 µM | 0.327 µM | 0.255 µM | – | 0.232 µM | 0.0217 µM | 0.445
8 | Cc1nnc(-c2ccc(C)c(-c3ccc(C(=O)Nc4cccc(C#N)c4)cc3)c2)o1 | > 25 µM | > 25 µM | > 25 µM | > 25 µM | > 25 µM | > 25 µM | > 25 µM | > 25 µM | > 25 µM | > 25 µM | > 25 µM | > 25 µM | > 25 µM | > 25 µM | > 25 µM | > 25 µM | > 25 µM | > 25 µM | > 25 µM | > 25
9 | CN(C)Cc1cc(C(F)(F)F)ccc1C(O)(c1ccccc1)c1ccccc1 | 29.5 µM | 31.2 µM | 24.7 µM | > 100 µM | 25.3 µM | 35.8 µM | 21.5 µM | 25.4 µM | 38.4 µM | 28 µM | – | – | – | – | – | – | – | – | – | –
10 | CN(c1ccc(NC(=O)Nc2c(Cl)cccc2Cl)cc1)c1ccnc(Nc2cccc(CS(C)(=O)=O)c2)n1 | 7.66 µM | 21 µM | > 25 µM | > 17.6 µM | 11.6 µM | 6.82 µM | > 22.7 µM | 8.08 µM | > 25 µM | > 25 µM | 1.65 µM | 24.6 µM | 4.35 µM | 2.64 µM | 2.31 µM | 3.68 µM | 2.23 µM | 4.5 µM | 0.303 µM | 4.53
11 | CCN1C(=O)c2ccc3c4c(ccc(c24)C1=O)C(=O)N(CCCNCc1ccccc1OC)C3=O | 2.49 µM | 2.47 µM | 3.6 µM | 8.35 µM | 2.1 µM | 2.87 µM | 5.53 µM | 2.04 µM | 2.97 µM | 6.3 µM | 0.78 µM | 1.11 µM | 2.21 µM | 0.69 µM | 0.438 µM | 1.64 µM | 0.671 µM | 1.33 µM | 0.466 µM | 0.791
